Experimental data published in publication PMC6792352, “Limited Chemical Structural Diversity Found to Modulate Thyroid Hormone Receptor in the Tox21 Chemical Library” (Environmental Health Perspectives, 2019).
Structures can show the parent of a compound that is named as a salt.

Assay: in vitro
Details: rat, gh3-tre-luc cells

With `c1ccc2c(c1)Cc1ccccc1-2` [Fluorene] the CC50 at 24 h (AC50 (uM) modified / 1000) was > 90 µM.
For `COc1cccc(C=O)c1` [3-Methoxybenzaldehyde], the CC50 at 24 h (AC50 (uM) modified / 1000, Tox21_110001=Tox21_302136, viability, 1 nM T3 present, 24 h) was > 90 µM.
In the case of `CCOC(=O)CS` [Acetic acid,mercapto-,ethylester], the CC50 at 24 h (AC50 (uM) modified / 1000) is reported as > 90 µM.
In the case of `C[C@@H]1[C@@H]2Cc3ccc(O)cc3[C@@]1(C)CCN2CC1CC1` [(+)-Cyclazocine], the CC50 at 24 h (AC50 (uM) modified / 1000, Tox21_110001=Tox21_113513, viability, 1 nM T3 present, 24 h) is reported as > 50 µM.
For `O=C(OCCOCCO)c1ccccc1Nc1cccc(C(F)(F)F)c1` [Etofenamate], the CC50 at 24 h (AC50 (uM) modified / 1000) was > 20 µM.
In the case of `CC(C)=CCC/C(C)=C/CO` [Geraniol], the CC50 at 24 h (AC50 (uM) modified / 1000) is reported as > 90 µM.
With `Cc1ccc(C)c(O)c1` [2,5-Dimethylphenol] the CC50 at 24 h (AC50 (uM) modified / 1000) was > 90 µM.
In the case of `O=C(O)C(Cc1cc(I)c(O)c(I)c1)c1ccccc1` (stereo not shown) [Iodoalphionic acid], the CC50 at 24 h (AC50 (uM) modified / 1000) is reported as > 50 µM.
In the case of `CCCN(CCC)C(=O)Cc1c(-c2ccc(Cl)cc2)nc2ccc(Cl)cn12` [Alpidem], the CC50 at 24 h (AC50 (uM) modified / 1000) is reported as > 50 µM.
In the case of `C[C@]12CCC(=O)C=C1CC[C@@H]1[C@@H]2[C@@H](O)C[C@@]2(C)[C@H]1CC[C@]2(O)C(=O)CO` [Hydrocortisone], the CC50 at 24 h (AC50 (uM) modified / 1000) is reported as > 90 µM.
For `CN1CCC[C@H]1c1cccnc1` [Nicotine], the CC50 at 24 h (AC50 (uM) modified / 1000) was > 90 µM.
`Oc1cccc(O)c1O` [Pyrogallol] gave a CC50 at 24 h (AC50 (uM) modified / 1000) of 44.6 µM.
For `CCOC(=O)C(C)OC(=O)c1cc(Oc2ccc(C(F)(F)F)cc2Cl)ccc1[N+](=O)[O-]` (stereo not shown) [Lactofen], the CC50 at 24 h (AC50 (uM) modified / 1000) was > 90 µM.
For `CC(C)CCCCCCCCCCCCCCC(=O)O` [Isooctadecanoic acid], the CC50 at 24 h (AC50 (uM) modified / 1000) was > 90 µM.
With `CC(C)Nc1ccccc1` [N-Isopropylaniline] the CC50 at 24 h (AC50 (uM) modified / 1000) was > 90 µM.
For `Nc1cc(Cl)c(N)c(Cl)c1` [2,6-Dichloro-1,4-benzenediamine], the CC50 at 24 h (AC50 (uM) modified / 1000) was > 90 µM.
With `c1ccc2c(c1)OCC(CN1CCCCC1)O2` (stereo not shown) [Piperoxan] the CC50 at 24 h (AC50 (uM) modified / 1000) was > 50 µM.
For `CC(O)COC(C)COC(C)CO` (stereo not shown) [Tripropylene glycol], the CC50 at 24 h (AC50 (uM) modified / 1000) was > 90 µM.
In the case of `CN1CC(=O)N=C1NC(=O)Nc1cccc(Cl)c1` [Fenobam], the CC50 at 24 h (AC50 (uM) modified / 1000) is reported as > 50 µM.
With `C=CC#N` [Acrylonitrile] the CC50 at 24 h (AC50 (uM) modified / 1000, Tox21_110001=Tox21_202076, viability, 1 nM T3 present, 24 h) was > 100 µM and the CC50 at 24 h (AC50 (uM) modified / 1000, Tox21_110001=Tox21_302951, viability, 1 nM T3 present, 24 h) was > 90 µM.
Molecule `CCCCCCCCCCCCCC[N+](C)(C)Cc1ccccc1` [Benzyldimethyltetradecylammonium chloride dihydrate] has a CC50 at 24 h (AC50 (uM) modified / 1000) of 10.5 µM.
For `CC1=C(O)C(=O)C(C)O1` (stereo not shown) [4-Hydroxy-2,5-dimethyl-3(2H)furanone], the CC50 at 24 h (AC50 (uM) modified / 1000) was > 90 µM.
In the case of `O=C(N/N=C/c1ccc([N+](=O)[O-])o1)c1ccc(O)cc1` [Nifuroxazide], the CC50 at 24 h (AC50 (uM) modified / 1000) is reported as > 20 µM.
With `CC(C)(O)C(=O)c1ccc(OCCO)cc1` [2-Hydroxy-1-[4-(2-hydroxyethoxy)phenyl]-2-methylpropan-1-one] the CC50 at 24 h (AC50 (uM) modified / 1000) was > 90 µM.
For `O=C(O)CSCC(=O)NC1CCSC1=O` (stereo not shown) [Erdosteine], the CC50 at 24 h (AC50 (uM) modified / 1000) was > 50 µM.
In the case of `CCCCCCC1CCCC(=O)O1` (stereo not shown) [Undecanoic delta-lactone], the CC50 at 24 h (AC50 (uM) modified / 1000) is reported as > 90 µM.
`C#C[C@]1(O)CC[C@H]2[C@@H]3CCC4=CC(=O)CC[C@@H]4[C@H]3CC[C@@]21C` [Norethindrone] gave a CC50 at 24 h (AC50 (uM) modified / 1000) of 59.2 µM.
For `CC(C)N1C(=O)c2ccccc2NS1(=O)=O` [Bentazone], the CC50 at 24 h (AC50 (uM) modified / 1000) was > 90 µM.
For `CC(C)(C)C(=O)Oc1ccc(S(=O)(=O)Nc2ccccc2C(=O)NCC(=O)O)cc1` [Sivelestat sodium tetrahydrate], the CC50 at 24 h (AC50 (uM) modified / 1000) was > 50 µM.
For `CC1(C)C2=CCCC(C)(C)[C@]23CC[C@H]1C3` [(-)-Isolongifolene], the CC50 at 24 h (AC50 (uM) modified / 1000) was > 90 µM.
With `CCOC(=O)/C=C\C(=O)OCC` [Diethyl maleate] the CC50 at 24 h (AC50 (uM) modified / 1000) was > 90 µM.
For `C=C1[C@H](CO)[C@@H](O)C[C@@H]1n1cnc2c(=O)[nH]c(N)nc21` [Entecavir], the CC50 at 24 h (AC50 (uM) modified / 1000) was > 50 µM.
With `O=CC=O` [Glyoxal] the CC50 at 24 h (AC50 (uM) modified / 1000) was > 90 µM.
With `CC(C)(C)OC(=O)c1ccc(O)cc1` [tert-Butyl 4-hydroxybenzoate] the CC50 at 24 h (AC50 (uM) modified / 1000) was > 90 µM.
With `CCCCCCCCCCCCCCCC(=O)O[C@@H]1[C@@H](O)[C@@H](O)[C@@H]([C@H](NC(=O)[C@@H]2C[C@@H](CCC)CN2C)[C@H](C)Cl)O[C@@H]1SC` [Clindamycin palmitate hydrochloride] the CC50 at 24 h (AC50 (uM) modified / 1000) was > 50 µM.
For `CCc1c2c(nc3ccc(OC(=O)N4CCC(N5CCCCC5)CC4)cc13)-c1cc3c(c(=O)n1C2)COC(=O)[C@]3(O)CC` [Irinotecan hydrochloride], the CC50 at 24 h (AC50 (uM) modified / 1000) was > 50 µM.
For `CC(=O)O[C@H]1CC[C@@]2(C)C(=CC[C@@H]3[C@@H]2CC[C@]2(C)C(c4cccnc4)=CC[C@@H]32)C1` [Abiraterone acetate], the CC50 at 24 h (AC50 (uM) modified / 1000) was > 50 µM.
In the case of `CC#CCC(C)[C@H](O)/C=C/[C@@H]1[C@H]2C/C(=C/CCCC(=O)O)C[C@H]2C[C@H]1O` (stereo partly shown) [Iloprost], the CC50 at 24 h (AC50 (uM) modified / 1000) is reported as > 50 µM.
With `C=CC(C)(CCC=C(C)C)OC(=O)c1ccccc1N` (stereo not shown) [Linalyl anthranilate] the CC50 at 24 h (AC50 (uM) modified / 1000) was > 90 µM.
With `O=C(O)Cc1cc(I)c(Oc2ccc(O)c(I)c2)c(I)c1` [Tiratricol] the CC50 at 24 h (AC50 (uM) modified / 1000) was > 20 µM.
In the case of `CCCCOC(=O)CCCCC(=O)OCCCC` [Dibutyl adipate], the CC50 at 24 h (AC50 (uM) modified / 1000) is reported as > 90 µM.
For `CC(C)CCCCCOC(=O)COc1ccc(Cl)cc1Cl` [2,4-D isooctyl ester], the CC50 at 24 h (AC50 (uM) modified / 1000) was > 90 µM.
